Reference: article PMC6956242 (Journal of Medicinal Chemistry, 2019)
Where two headings read alike, the source gives them in different places. The star is where a group is joined. Biotin = O=C1N[C@H]2[C@H](CS[C@H]2CCCCC(=O)*)N1

T1: His6-RORγt-LBD (Homo sapiens, UniProt P51449)
T1 sequence (P51449 265-518): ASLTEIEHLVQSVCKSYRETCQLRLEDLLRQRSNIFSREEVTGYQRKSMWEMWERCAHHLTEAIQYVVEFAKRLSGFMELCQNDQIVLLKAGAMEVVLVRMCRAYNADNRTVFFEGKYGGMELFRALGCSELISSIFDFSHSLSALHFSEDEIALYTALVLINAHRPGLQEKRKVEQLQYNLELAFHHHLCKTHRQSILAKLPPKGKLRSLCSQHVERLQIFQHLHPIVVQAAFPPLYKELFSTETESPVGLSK

T2: His6-RORγt-LBD (human retinoic acid receptor-related orphan receptor γt ligand binding domain, residues … (human, UniProt P51449-1 265-518))
T2 sequence (looked up): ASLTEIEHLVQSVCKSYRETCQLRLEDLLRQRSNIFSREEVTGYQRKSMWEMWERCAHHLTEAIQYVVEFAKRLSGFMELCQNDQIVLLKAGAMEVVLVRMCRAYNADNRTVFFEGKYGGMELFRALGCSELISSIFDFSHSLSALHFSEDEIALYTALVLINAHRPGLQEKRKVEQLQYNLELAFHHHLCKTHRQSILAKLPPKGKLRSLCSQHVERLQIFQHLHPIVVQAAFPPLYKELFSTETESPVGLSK


Assays:
His6-RORγt-LBD [1] = molecular target: T1, His6-RORγt-LBD
Chemical stability = type: physicochemical; settings: 2 μM, aqueous buffer pH 7.4
PAMPA = type: in vitro ADME; settings: 500 μM donor, 20 h
[2] = Microsomal stability phase II; type: in vitro ADME, human; settings: 5 μM, UDPGA, 1 h, 37 °C
Plasma stability = type: in vitro ADME; settings: 5 μM, 100% plasma, 1 h, 37 °C
Plasma protein binding = type: in vitro ADME; settings: 5 μM, equilibrium dialysis 6 h, 37 °C
His6-RORγt-LBD [3] = molecular target: T1, His6-RORγt-LBD; type: biochemical; settings: for improvement in potency compared to phenyl 19: vs 19, coactivator recruitment IC50
[4] = molecular target: T2, His6-RORγt-LBD (human retinoic acid …); assay: AlphaScreen or HTRF

Row | Molecule | chemical stability (% remain) (Chemical stability) | PAMPA (% flux) (PAMPA) | microsomal stability phase 2 (% remain) [2] [% remain] | plasma stability (% remain) (Plasma stability) | plasma protein binding (% bound) (Plasma protein binding) | further results
1 | C[C@H]1O[C@@H](O[C@H]2[C@@H](O)C[C@H](O[C@H]3[C@@H](O)C[C@H](O[C@H]4CC[C@@]5(C)[C@H](CC[C@@H]6[C@@H]5C[C@@H](O)[C@]5(C)[C@@H](C7=CC(=O)OC7)CC[C@]65O)C4)O[C@@H]3C)O[C@@H]2C)C[C@H](O)[C@@H]1O [compound 1, digoxin, reference compound] | – | – | – | – | – | Hill slope (His6-RORγt-LBD [1]; 0 μM cholesterol): –0.76 ± 0.05; Hill slope (His6-RORγt-LBD [1]; 0.25 μM cholesterol): –0.77 ± 0.03; Hill slope (His6-RORγt-LBD [1]; 1.0 μM cholesterol): –1.01 ± 0.06
2 | O=C(O)c1ccc(-c2nn(C(=O)c3c(Cl)cccc3C(F)(F)F)c3ccccc23)cc1 [compound 3, MRL-871, reference compound] | 81.0 | 23.7 | 47.1 | 100 | 99.9 | –
3 | O=C(O)c1ccc(NC(=O)c2c(-c3c(Cl)cccc3C(F)(F)F)noc2-c2ccccc2)cc1 [compound 8, 4-{3-[2-Chloro-6-(trifluoromethyl)phenyl]-5-phenyl-1,2-oxazole-4-amido}benzoic Acid] | 95.4 | 60.1 | 100 | 99.9 | 97.8 | –
4 | O=C(O)c1ccc(CNC(=O)c2c(-c3c(Cl)cccc3C(F)(F)F)noc2-c2ccccc2)cc1 [compound 18, 4-[({3-[2-Chloro-6-(trifluoromethyl)phenyl]-5-phenyl-1,2-oxazol-4-yl}formamido)methyl]benzoic Acid] | – | – | – | – | – | increase in potency compared to the initial hit (His6-RORγt-LBD [3]; vs 8, TR-FRET IC50): 6 fold
5 | O=C(O)c1ccc(NCc2c(-c3c(Cl)cccc3C(F)(F)F)noc2-c2ccco2)cc1 [compound 23, 4-[({3-[2-Chloro-6-(trifluoromethyl)phenyl]-5-(furan-2-yl)-1,2-oxazol-4-yl}methyl)amino]benzoic Acid] | 100 | 50.4 | 92.8 | 86.5 | 100 | improvement in potency compared to phenyl 19 (His6-RORγt-LBD [3]): 9 fold
6 | O=C(O)c1ccc(NCc2c(-c3c(Cl)cccc3C(F)(F)F)noc2-c2cc[nH]c2)cc1 [compound 25, 4-[({3-[2-Chloro-6-(trifluoromethyl)phenyl]-5-(1H-pyrrol-3-yl)-1,2-oxazol-4-yl}methyl)amino]benzoic Acid] | 95.3 | 33.6 | 69.8 | 85.9 | 99.9 | Hill slope (His6-RORγt-LBD [1]; 0 μM cholesterol): –0.77 ± 0.04; Hill slope (His6-RORγt-LBD [1]; 0.25 μM cholesterol): –0.86 ± 0.03; Hill slope (His6-RORγt-LBD [1]; 1.0 μM cholesterol): –1.01 ± 0.03; improvement in potency compared to phenyl 19 (His6-RORγt-LBD [3]): 36 fold
7 | O=C(O)c1ccc(NCc2c(-c3c(Cl)cccc3C(F)(F)F)noc2-c2cccc3ccccc23)cc1 [compound 26, 4-[({3-[2-Chloro-6-(trifluoromethyl)phenyl]-5-(naphthalen-1-yl)-1,2-oxazol-4-yl}methyl)amino]benzoic Acid] | – | – | – | – | – | IC50 (TR-FRET coactivator recruitment) (His6-RORγt-LBD [3]; RORγt LBD, SRC-1 box2 peptide, triplicate): no IC50 curve could be fitted
8 | Biotin-PSSHSSLTARHKILHRLLQEGSPSD-NH2 (SMILES CC[C@H](C)[C@H](NC(=O)[C@H](CCCCN)NC(=O)[C@H](Cc1c[nH]cn1)NC(=O)[C@H](CCCNC(=N)N)NC(=O)[C@H](C)NC(=O)[C@@H](NC(=O)[C@H](CC(C)C)NC(=O)[C@H](CO)NC(=O)[C@H](CO)NC(=O)[C@H](Cc1c[nH]cn1)NC(=O)[C@H](CO)NC(=O)[C@H](CO)NC(=O)[C@@H]1CCCN1C(=O)CCCC[C@@H]1SC[C@@H]2NC(=O)N[C@@H]21)[C@@H](C)O)C(=O)N[C@@H](CC(C)C)C(=O)N[C@@H](Cc1c[nH]cn1)C(=O)N[C@@H](CCCNC(=N)N)C(=O)N[C@@H](CC(C)C)C(=O)N[C@@H](CC(C)C)C(=O)N[C@@H](CCC(N)=O)C(=O)N[C@@H](CCC(=O)O)C(=O)NCC(=O)N[C@@H](CO)C(=O)N1CCC[C@H]1C(=O)N[C@@H](CO)C(=O)N[C@@H](CC(=O)O)C(N)=O) [N-terminal biotinylated SRC-1 box2 peptide] | – | – | – | – | – | binding result [4]: binds
